Results reported in paper PMC8186431, “Synthesis and biological evaluation of thiazolidinedione derivatives with high ligand efficiency to P. aeruginosa PhzS” (Journal of Enzyme Inhibition and Medicinal Chemistry, 2021).
Entries after “also recorded” stand apart in the source; their conditions may differ.

How the values were obtained:
PaPhzS = target: T1, PaPhzS (Pseudomonas aeruginosa, UniProt Q9HWG9); test: Compounds' affinity calculation by TSA (fraction of unfolded protein, DSFit software); assay type: binding, P. aeruginosa; conditions: for BEI (DSFit software): BEI: (pKd/MW)×1000, from DSFit Kd; for Kd: Kd (DSFit software), TSA, fraction of unfolded PaPhzS at 43 °C, PaPhzS 5 µM, ligand 3.12 to 200 µM; for LE (DSFit software): LE: 1.4*pKd/HA, from DSFit Kd
T1 construct: implied by pET28a and the HisTrap purification; made in house; host or cells: E. coli Rosetta (DE3)
Protocol: The effect of ligand’s concentration (ranging from 3.12 to 200 µM) over the PaPhzS Tm (5 µM final concentration) was evaluated using the same parameters described in section (2.2.2). […] The ΔCp value (0.69) required for this calculation was predicted by hydrophobic surface area-based method available on http://www.ibi.vu.nl/programs/bicepwww/. Briefly, the heat capacity (C) was calculated at two temperatures: 25 °C (before PhzS unfolding [T1]) and 50 °C (after PzhS unfolding [T2]) using Equation (2). C = 332.66 ± 18.9 X (273.15 − T) + 52089 ± 1353 (2) [drawing 2] where T stands for temperature in Kelvin. Therefore T1 = 298.15 K, T2 = 323.15 K.
Bai and co-workers devised an elegant workaround that limitation, which relies on the percentage of unfolded protein at a fixed temperature. […] According to Bai and co-workers (2019) Kd values close to the protein concentration (5 µM) or lower should be taken with scepticism. […] As these Kd values were obtained at a temperature higher than the physiologic one, we decided to employ an orthogonal assay to evaluate the compounds’ affinity. In order to achieve this goal, PaPhzS was labelled with FITC and the effects of different concentration of each inhibitor on the covalently modified PaPhzS was monitored at 25 °C (Figure 5).

PhzS from P. aeruginosa = target: PhzS from P. aeruginosa; set-up: method as in PMID 32772556; conditions: Kd value calculated by microscale thermophoresis; cited from earlier work
[1] = target: T2, PhzS from P. aeruginosa (PaPhzS) (Pseudomonas aeruginosa, UniProt Q9HWG9); test: Thermal shift assay (TSA) screening of thiazolidinedione derivatives; assay type: binding; conditions: different concentrations (3.12–100.0 µM)
T2 construct: implied by pET28a and the HisTrap purification; made in house; host or cells: E. coli Rosetta (DE3)
Protocol: TSA assays were performed on Applied Biosystems 7500 RT-PCR (Applied Biosystems, Foster City, CA USA), fitted with custom filter sets. All assays were carried out in triplicate on a 96-well PCR plate (PCR plates 96 well BioRad®), manually sealed with transparent capping strips (Flatcap strips BioRad®). The plates were centrifuged for 2 min, 2000 rpm, at 25 °C and then the fluorescence of SYPRO^TM orange (S6650) was monitored (excitation wavelength= 492 nm and emission wavelength= 610 nm), while the plate was heated from 25 to 85 °C, in increments of 1 °C per minute.
The TSA conditions employed in this work were previously optimised. Briefly, 5 µl of PaPhzS (5 µM final concentration), 1 µl of SYPRO^TM orange (5X), 13 µl of assay buffer (50 mM potassium phosphate, 300 mM NaCl, pH 8), and 1 µl DMSO (5% v/v), as a negative control, or the putative inhibitor (diluted in DMSO) were added to each well. All experiments were carried out in triplicate
Raw fluorescence data were recorded within the Applied Biosystems 7500 Software v2.0, and then exported to NAMI[52] for Tm calculation by the first-derivative method.

PaPhzS-FITC = target: T3, PaPhzS-FITC (Pseudomonas aeruginosa, UniProt Q9HWG9); test: Affinity to covalently modified PaPhzS (FITC fluorescence); assay type: binding, P. aeruginosa; conditions: for BEI (FITC): BEI: (pKd/MW)×1000, from PaPhzS-FITC Kd; for LE (FITC): LE: 1.4*pKd/HA, from PaPhzS-FITC Kd; for affinity to PaPhzS, in words: PaPhzS-FITC assay
T3 construct: implied by pET28a and the HisTrap purification); FITC (chemical covalent label, not a peptide; made in house; host or cells: E. coli Rosetta (DE3)
Protocol: PaPhzS (2 mg/mL) was incubated with fluorescein-5-isothiocyanate (FITC) dye (6 mg/mL) containing 50 mM HEPES (pH 8.0) for 2 h, at 25 °C. Then, the solution was loaded on a Hi-Trap HP desalting column (GE Healthcare), previously equilibrated with 50 mM HEPES buffer (pH 8) and 2 CV of the same buffer were injected. The absorbance of the collected fractions was monitored at 280 nm and 490 nm and those with a molar ratio ranging from 0.3 and 1.0[55] were employed for the Kd calculation experiments, as follows: The fluorescence of PaPhzS-FITC, at 25 °C, using in a real-time thermocycler (AppliedBiosystem7500) equipped with the FAN filter (excitation 498 nm and emission 530 nm wavelengths) for 10 min in the presence of different concentrations of each compound (3.12–100.0 µM). The Raw fluorescence data, recorded within the Applied Biosystems 7500 Software v2.0, was employed for non-linear regression analysis (three parameters) (Equation 1), as available in GraphPad Prism 8.0 software (GraphPadV® Software, San Diego, CA, USA, www.graphpad.com). All experiments were carried out in triplicate using 96-well PCR plate (PCR plates 96 well BioRad®), manually sealed with transparent capping strips (Flatcap strips BioRad®).

T1 sequence (Q9HWG9 whole entry): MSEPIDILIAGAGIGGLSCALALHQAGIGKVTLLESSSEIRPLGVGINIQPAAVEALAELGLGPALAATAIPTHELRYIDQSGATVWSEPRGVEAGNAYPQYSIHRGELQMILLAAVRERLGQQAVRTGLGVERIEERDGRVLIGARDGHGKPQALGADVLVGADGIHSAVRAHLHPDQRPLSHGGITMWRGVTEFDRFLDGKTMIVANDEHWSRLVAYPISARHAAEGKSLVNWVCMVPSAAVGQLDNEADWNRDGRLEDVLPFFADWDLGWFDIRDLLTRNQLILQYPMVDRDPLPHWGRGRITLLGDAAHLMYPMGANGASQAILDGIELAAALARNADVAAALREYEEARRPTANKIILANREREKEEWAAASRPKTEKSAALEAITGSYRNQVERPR
T3 sequence (Q9HWG9 whole entry): as above
T2 sequence (Q9HWG9 whole entry): as above

melting point [°C] | Compound | BEI (DSFit software) (PaPhzS) | Kd (PaPhzS) [µM] | LE (DSFit software) (PaPhzS) | concentration-response profile of ΔTm [1] | Kd (PaPhzS-FITC) [µM] | affinity to PaPhzS, in words (PaPhzS-FITC) | other results
201 to 202 | O=C1S/C(=C\c2cc(Cl)ccc2O)C(=O)N1Cc1cccc(Cl)c1 |  |  |  |  |  |  | 
196 to 197 | Cc1ccc(/C=C2\SC(=O)NC2=O)cc1Br |  |  |  |  |  |  | 
118 to 119.5 | O=C1NC(=O)/C(=C/c2cncc3ccccc23)S1 |  |  |  |  |  |  | 
194 to 195 | O=C1NC(=O)/C(=C/c2c(O)ccc3ccccc23)S1 |  |  |  |  |  |  | 
174 to 176 | COc1ccc(C(=O)CN2C(=O)S/C(=C\c3ccc(C)cc3)C2=O)cc1 |  |  |  |  |  |  | 
 | O=C1NC(=O)/C(=C\c2ccc(OCc3nc4ccccc4c(=O)n3-c3ccccc3)cc2)S1 [A, (E)-5–(4-((4-oxo-3-phenyl-3,4-dihydroquinazolin-2-yl)methoxy)benzylidene)thiazolidine-2,4-dione, reference compound] | 11.0 | 9.3 | 0.21 |  |  |  | Kd (PhzS from P. aeruginosa): 18 µM
110 to 111 | O=C1S/C(=C\c2c(Cl)cccc2Cl)C(=O)N1Cc1cccc(Cl)c1 [Compound 3, (Z)-3–(3-chlorobenzyl)-5–(2,6-dichlorobenzylidene)thiazolidine-2,4-dione] |  |  |  |  |  |  | 
 | O=C1NC(=O)C(=Cc2cc(Cl)cc(Br)c2O)S1 [Compound 15] | 13.3 | 37.2 | 0.36 | clear concentration-response profile | 166 ± 0.5 | low affinity; also recorded: reduced affinity | BEI (FITC) (PaPhzS-FITC): 11.4; LE (FITC) (PaPhzS-FITC): 0.31
 | O=C1NC(=O)/C(=C/c2cc(Cl)ccc2O)S1 [Compound 16] | 21.0 | 4.2 | 0.47 | clear concentration-response profile | 6.18 ± 0.2 | low micromolar ligands | BEI (FITC) (PaPhzS-FITC): 20.42; BEI (FITC) (PaPhzS-FITC; listed as Mol 16): 20.4; LE (FITC) (PaPhzS-FITC; listed as Mol 16): 0.45
 | COCn1cc(/C=C2\SC(=O)NC2=O)c2ccccc21 [Compound 33] | 14.9 | 50 | 0.30 | clear concentration-response profile | 84.2 ± 0.2 | low affinity | BEI (FITC) (PaPhzS-FITC): 14.1; LE (FITC) (PaPhzS-FITC): 0.28

Compound | melting point [°C] | BEI (DSFit software) (PaPhzS) | Kd (PaPhzS) [µM] | LE (DSFit software) (PaPhzS) | concentration-response profile of ΔTm [1] | Kd (PaPhzS-FITC) [µM] | affinity to PaPhzS, in words (PaPhzS-FITC) | other results
COc1ccc(/C=C2\SC(=O)NC2=O)c(Br)c1O [Compound 20, (Z) 5–(2-bromo-3-hydroxy-4-methoxybenzylidene)thiazolidine-2,4-dione] | 245 | 15.0 | 10.5 | 0.38 | clear concentration-response profile | 3.3 ± 0.3 | low micromolar ligands | BEI (FITC) (PaPhzS-FITC; listed as Mol 20): 16.6; LE (FITC) (PaPhzS-FITC; listed as Mol 20): 0.42
COc1cc(OC)c(OC)cc1/C=C1\SC(=O)NC1=O [Compound 28, (Z-5–(2,4,5-trimethoxybenzylidene)thiazolidine-2,4-dione)] | 158 to 160 |  |  |  | clear concentration-response profile |  |  | 
O=C1NC(=O)/C(=C/C=C/c2ccccc2[N+](=O)[O-])S1 [Compound 38, (Z)-5-((E)-3–(2-nitrophenyl)allylidene)thiazolidine-2,4-dione] | 119 to 120 |  |  |  | small variation in ΔTm |  |  | 
